Assay results reported in ChEMBL document CHEMBL1142074, “In vitro activities of cloxyquin (5-chloroquinolin-8-ol) against Mycobacterium tuberculosis” (2007).

Assays:
Type in all cases: functional
[1] = tested on: Mycobacterium tuberculosis; test: Antimycobacterial activity against kanamycin-resistant Mycobacterium tuberculosis H37Rv ATCC 35827 by microplate alamar blue assay
[2] = tested on: Mycobacterium tuberculosis; test: Antimycobacterial activity against ethambutol-resistant Mycobacterium tuberculosis H37Rv ATCC 35837 by microplate alamar blue assay
[3] = tested on: Mycobacterium tuberculosis; test: Antimycobacterial activity against thiacetazone-resistant Mycobacterium tuberculosis H37Rv ATCC 35829 by microplate alamar blue assay
[4] = tested on: Mycobacterium tuberculosis; test: Antimycobacterial activity against cycloserine-resistant Mycobacterium tuberculosis H37Rv ATCC 35826 by microplate alamar blue assay
[5] = tested on: Mycobacterium tuberculosis; test: Antimycobacterial activity against ethionamide-resistant Mycobacterium tuberculosis H37Rv ATCC 35830 by microplate alamar blue assay
[6] = tested on: Mycobacterium tuberculosis; test: Antimycobacterial activity against pyrazinamide-resistant Mycobacterium tuberculosis H37Rv ATCC 35828 by microplate alamar blue assay

Measured: MIC

Oc1ccc(Cl)c2cccnc12 [CLOXYQUIN]
0.125 µg/mL: all assays above
